# Source: US6737383B1, “Herbicidal oxadiazolidines” (priority 1999, dated 2004)
# Legend:
# [1] = tested on: duck salad; test: Test B flood test duck salad; format: in vivo, Heteranthera limosa
# Summary of the method: (§1)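 Read-out is a visual response score from 0 (no effect) to 10 (complete control), assigned by comparison with untreated controls. Treatment was applied at the 2-leaf stage, and plants stayed in the greenhouse for twelve to sixteen days before scoring.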
# [2] = tested on: bedstraw; test: Test B pre/postemergence bedstraw; format: in vivo, Galium aparine
# Summary of the method: (§2)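 Response is a visual 0-to-10 score relative to untreated plants, where 0 means no effect and 10 means complete control, taken twelve to sixteen days after application. Treatments went onto soil at planting and onto foliage of 1- to 4-leaf plants, using a surfactant-containing non-phytotoxic solvent.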
# [3] = tested on: wheat; test: Test B pre/postemergence wheat; format: in vivo, Triticum aestivum; settings: for Wheat plant response rating (0 to 10 scale): 0 is no effect
# Summary of the method: as §2
# [4] = tested on: rice; test: Test B flood test rice; format: in vivo, Oryza sativa; settings: for Plant response rating, Rice: Rate 250 g/ha, Postemergence (flood test)
# Summary of the method: as §1
# [5] = Postemergence (flood test species), Rate 125 g/ha, scale of 0 to 10 where 0 is no effect and 10 is complete control
# [6] = Postemergence, Rate 62 g/ha, scale 0 to 10, 0 is no effect, 10 is complete control
# [7] = Rate 500 g/ha, listed under Postemergence (flood test species), scale 0 to 10, 0 no effect, 10 complete control
# [8] = flood test, listed under Postemergence, Rate 250 g/ha, scale 0 to 10, 0 no effect, 10 complete control
# [9] = Preemergence, Rate 62 g/ha, scale 0 to 10 (0 no effect, 10 complete control)
# [10] = Preemergence, Rate 125 g/ha, scale 0 to 10 (0 no effect, 10 complete control)
# [11] = Preemergence, Rate 250 g/ha, scale of 0 to 10 where 0 is no effect and 10 is complete control
# [12] = Preemergence, Rate 500 g/ha, scale 0 (no effect) to 10 (complete control)
# [13] = Postemergence, Rate 125 g/ha, scale of 0 to 10 where 0 is no effect and 10 is complete control
# [14] = Rate 250 g/ha, Postemergence, scale 0 to 10, 0 is no effect, 10 is complete control
# [15] = Rate 500 g/ha, Postemergence, scale 0 to 10, 0 no effect, 10 complete control
# [16] = scale 0 to 10, 0 is no effect, 10 is complete control
# [17] = Preemergence, Rate 125 g/ha, 10 is complete control
# [18] = Rate 62 g/ha, Postemergence section, flood test species, scale of 0 to 10 where 0 is no effect and 10 is complete control
# [19] = Rate 500 g/ha, listed under Postemergence (flood test species), scale 0 to 10
# [20] = Preemergence, Rate 250 g/ha, scale 0 to 10, 0 is no effect, 10 is complete control
# [21] = Preemergence, Rate 500 g/ha, scale 0 to 10 (0 no effect, 10 complete control)
# [22] = Rate 62 g/ha, Postemergence, scale of 0 to 10 where 0 is no effect and 10 is complete control
SMILES,"Ducksalad plant response rating [1, 5]","Ducksalad plant response rating [1, 6]","Ducksalad plant response rating [1, 7]","Ducksalad plant response rating [1, 8]","Bedstraw plant response rating [2, 6]","Bedstraw plant response rating [2, 9]","Plant response rating, Bedstraw [2, 10]","Plant response rating, Bedstraw [2, 11]","Wheat plant response rating [3, 6]","Wheat plant response rating [3, 13]","Wheat plant response rating [3, 9]","Plant response rating, Wheat [3, 11]","Wheat plant response rating [3, 12]","Plant response rating, Wheat [3, 14]","Wheat plant response rating [3, 15]","Rice plant response rating [4, 5]","Rice plant response rating [4, 6]","Plant response rating, Rice [4, 16]","Rice plant response rating [4, 7]","Bedstraw plant response rating [2, 15]",further results
CC(C)N(C(=O)n1oc(=O)n(-c2cccc3c2CCCC3)c1=O)c1ccc(F)cc1 [Compound 90],0,0,0,0,0,0,0,0,0,0,0,0,0,0,0,0,0,0,0,–,"Bedstraw plant response rating [2, 12]: 0; Plant response rating, Wheat [3, 10]: 0"
CC(C)N(C(=O)n1oc(=O)n(-c2cnn(C)c2Cl)c1=O)c1ccc(F)cc1 [Compound 97],0,0,2,2,0,–,0,0,0,0,0,0,2,0,0,0,0,0,3,3,"Bedstraw plant response rating ([2]; Postemergence, Rate 250 g/ha, scale 0 to 10, 0 no effect, 10 complete control): 1; Bedstraw plant response rating ([2]; Rate 125 g/ha, Postemergence, scale 0 to 10, 0 no effect, 10 complete control): 0; Wheat plant response rating (0 to 10 scale) [3, 17]: 0"
CCN(CC)C(=O)n1oc(=O)n(Cc2ccccc2)c1=O [Compound 152],0,–,–,–,–,0,–,–,–,–,0,–,–,0,–,0,–,0,–,0,"Ducksalad plant response rating [1, 18]: 0; Plant response rating, Ducksalad ([1]; Rate 250 g/ha, Postemergence (flood test), scale 0 to 10, 0 is no effect, 10 is complete control): 0; Ducksalad plant response rating [1, 19]: 0; Bedstraw plant response rating [2, 13]: 0; Bedstraw plant response rating (0 to 10 scale) ([2]; Preemergence, Rate 125 g/ha, 0 is no effect, 10 is complete control): 0; Bedstraw plant response rating [2, 20]: 0; Bedstraw plant response rating [2, 21]: 0; Bedstraw plant response rating [2, 22]: 0; Plant response rating, Bedstraw [2, 14]: 0; Wheat plant response rating (0 to 10 scale) [3, 17]: 0; Wheat plant response rating [3, 20]: 0; Wheat plant response rating [3, 21]: 0; Wheat plant response rating [3, 22]: 0; Wheat plant response rating ([3]; Rate 500 g/ha, Postemergence, scale 0 to 10): 0; Rice plant response rating [4, 18]: 0; Rice plant response rating [4, 19]: 0"
